Assay results: patent publication US12390470B2, “1-methylxanthine-based bioactive composition and method of use thereof” (Ingenious Ingredients, LP, priority 2021, dated 2025)
“And” between values parts separate entries of the source, which are not always exact repeats. Equal entries are not always repeated.

What was measured:
female wistar rats = details: rat, in vivo, 14 days
Experimental: An acute oral toxicity study of 1-Methylxanthine) was conducted in female wistar rats in accordance with OECD 423 guidelines. Rats were administered a single dose of 2,000 mg/kg orally and then observed individually for the first four hours, then over a period of 24 hours and once daily for 14 days. General behavior, adverse effects and mortality were observed throughout the experimental period. Body weights were recorded on test day 0 (prior to administration), day 3, day 7 and day 14. All the animals were necropsied and examined macroscopically. All the surviving animals had gained body weight by day 14 as compared to day 0. […] Based on the results, the median lethal dose of test substance in female rats after single oral treatment is 2,000 mg/kg body weight and is classified as category 5 and safe.

participant = test: Concentration by Visual Analog Scale; assay type: in vivo, human; set-up: Concentration (Visual Analog Scale): scale not given here
Experimental: One participant ingested 200 mg dose of 1-methylxanthine (1-MX) orally with 8 fluid ounces of cold tap water. Concentration was measured by Visual Analog Scale (VAS) at baseline, 30, 60, 90, 120 and 180 minutes after ingestion.

[1] = Brain weight in young and aged rats; assay type: in vivo
Experimental: (§1) Twenty-four young (6-8 Week) and twenty-four old (14-16 Months) Swiss Albino Wistar rats were housed in an animal room at a constant temperature (22±3° C.) and humidity (30%-70%) under a 12:12 h light-dark cycle with standard laboratory diet (Purina 5L79, Rat and Mouse 18% protein; PMI Nutrition International, Brentwood, MO, USA). Distilled water was provided ad libitum. All animal experiments were reviewed and approved by the Institutional Animal Ethical Committee (IAEC) of Radiant Research Services Pvt. Ltd (Bangalore, India). All research was conducted in accordance with the guidelines of the committee for the purpose of control and supervision of experiments on animals.
(§2) After one week of acclimation, the animals were randomly divided by body weight and age into six groups (n=8 per group in each test) for oral treatment once a day, at approximately same time each day (±1 hour), for 10 consecutive days: (1) vehicle control or (2) 1-methylxanthine or (3) 1-methylxanthine plus paraxanthine. The dose administered to the rat was calculated using US Food and Drug Administration for human equivalence doses (HED), assuming a human weight of 60 kg. […] Food intake was monitored daily while water intake was ad libitum. […] Body weight was recorded weekly. […]

male Swiss Albino mice = test: Forced swim test; assay type: in vivo
Experimental: as §1, with “8-week-old male” for “young (6-8 Week) and twenty-four old (14-16 Months)”, “mice” for “Wistar rats”
After one week of acclimation, the animals were randomly divided by body weight into three groups (n=8 per group in each test) for oral treatment once a day, at approximately same time each day (±1 hour), for 28 consecutive days: (1) vehicle control or (2) 1-methylxanthine or (3) 1-methylxanthine plus paraxanthine. The dose administered to the mice was calculated using US Food and Drug Administration for human equivalence doses (HED), assuming a human weight of 60 kg. The following HED was used in this study: 100 mg 1-methylxanthine (Ingenious Ingredients, L.P Lewisville, TX, USA; mouse dose: 20.5 mg/kg bw/day), or 100 mg 1-methylxanthine (Ingenious Ingredients, L.P Lewisville, TX, USA; mouse dose: 20.5 mg/kg bw/day) plus 100 mg paraxanthine (ENFINITY™, Ingenious Ingredients, L.P Lewisville, TX, USA; mouse dose: 20.5 mg/kg bw/day). 0.5% Carboxy Methyl Cellulose sodium was used as vehicle and the test item formulations were prepared daily. Dosing was conducted via oral gavage using disposable polypropylene syringes with sterilized stainless steel gavage tubes. Food intake was monitored daily while water intake was ad libitum.
During treatment period, training was accomplished on a swimming chamber at a moderate room temperature for 15 mins. The animals were adapted to this procedure daily 1 hr after dosing for 5 days in a week during the treatment period. On 28th day of respective treatment of all the animals were subjected to force swim test. Animals were forced to swim individually for 30 min in a glass jar of height 20 cm, diameter 10 cm, and filled with fresh water to a depth of 15 cm at room temperature. The parameters measured were first occurrence of climbing (the period the animal tries to climb the wall of the chamber), duration of immobility (the total time during which the animal is immobile) and total time spent in active swimming (the total duration during which the animal swims throughout the experimental period).

glutathione = test: Glutathione level in young and old rats; assay type: in vivo
Experimental: as §1, §2

## Cn1c(=O)[nH]c2nc[nH]c2c1=O [1-methylxanthine, 1-Methyl-3H-purine-2,6-dione]
Female wistar rats
  toxicity classification: category 5
Female wistar rats; po
  median lethal dose: 2,000 mg/kg body weight
participant; Average
  Concentration (VAS) MEAN (30-180): 61.2
participant; Person one
  Concentration (VAS) MEAN (30-180): 54.4
participant; Person one, 30 min
  Concentration (Visual Analog Scale): 60
participant; Person one, 60 min
  Concentration (Visual Analog Scale): 61
participant; Person one, 90 min
  Concentration (Visual Analog Scale): 50
participant; Person one, 120 min
  Concentration (Visual Analog Scale): 50
participant; Person one, 180 min
  Concentration (Visual Analog Scale): 51
participant; Person one, time 0, 200 mg oral
  Concentration (Visual Analog Scale): 50
participant; Person two
  Concentration (VAS) MEAN (30-180): 68.0
participant; Person two, 30 min
  Concentration (Visual Analog Scale): 65
participant; Person two, 60 min
  Concentration (Visual Analog Scale): 65
participant; Person two, 90 min
  Concentration (Visual Analog Scale): 65
participant; Person two, 120 min
  Concentration (Visual Analog Scale): 75
participant; Person two, 180 min
  Concentration (Visual Analog Scale): 70
participant; Person two, time 0, 200 mg oral
  Concentration (Visual Analog Scale): 65
[1]; aged animals
  Brain weight: 2 ± 0.074 g
[1]; young animals
  Brain weight: 1.73 ± 0.027 g
Male Swiss Albino mice; 30 min forced swim, day 28
  Duration of immobility: 9.74 ± 0.79 min
  duration of mobility/active swimming: 20.26 ± 0.79 min
Male Swiss Albino mice; forced swim, day 28
  number of climbing: 6.7±1.16
Male Swiss Albino mice; mouse, in vivo
  Duration of immobility lower compared to control: 5.4%
  duration of mobility/active swimming greater compared to control: 2.8%
  number of climbing improved compared to control: 6.0%
Male Swiss Albino mice; summary
  Overall outcome on energy, endurance, mood: showed improved energy and endurance, improved mood
glutathione; old rats
  glutathione levels: 25.29 ± 0.93 µg/mL
glutathione; young rats, listed as 1-MX
  glutathione levels: 28.57 ± 1.36 µg/mL and 28.57 ± 1.65 µg/mL
